The record followed here is patent publication US10689414B2 (Agios Pharmaceuticals, Inc., priority 2013, dated 2020).

One assay deals with HT1080 cells. As to the kind of experiment: Cellular assay, inhibition of 2-HG production in HT1080 cells. The format is cell-based. Conditions: Homo sapiens, HT-1080, 48 h. The method, then:
Cells (HT1080 or U87MG) are grown in T125 flasks in DMEM containing 10% FBS, 1× penicillin/streptomycin and 500 ug/mL G418 (present in U87MG cells only). They are harvested by trypsin and seeded into 96 well white bottom plates at a density of 5000 cell/well in 100 ul/well in DMEM with 10% FBS. […] Cells are incubated overnight at 37° C. in 5% CO2. The next day test compounds are made up at 2× the final concentration and 100 ul are added to each cell well. The final concentration of DMSO is 0.2% and the DMSO control wells are plated in row G. The plates are then placed in the incubator for 48 hours. […] The cell plate is placed back in the incubator for another 24 hours. At 72 hours post compound addition, 10 mL/plate of Promega Cell Titer Glo reagent is thawed and mixed. The cell plate is removed from the incubator and allowed to equilibrate to room temperature. Then 100 ul of Promega Cell Titer Glo reagent is added to each well of media. The cell plate is then placed on an orbital shaker for 10 minutes and then allowed to sit at room temperature for 20 minutes. The plate is then read for luminescence with an integration time of 500 ms.

Another assay relates to U87MG cells. As to the kind of experiment: Cellular assay, inhibition of 2-HG production in U87MG cells. The format is cell-based. Summed up: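 HT1080 or U87MG cells (U87MG kept with 500 ug/mL G418) seeded at 5000 cells/well and treated with compound at 0.2% final DMSO. Incubated 48 h at 37 °C. 2-HG inhibition determined by LC-MS. Viability read by CellTiter-Glo luminescence at 72 h post-dose.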

The target of the next assay is IDH1 R132C (Homo sapiens (Human), UniProt O75874, R132C). As to the kind of experiment: In vitro NADPH depletion assay for IDH1m R132C inhibitors. The format is biochemical. Conditions: IDH1 R132C enzyme, read-out: IDH R132C IC50. The method, then: (§1) A test compound is prepared as 10 mM stock in DMSO and diluted to 50× final concentration in DMSO, for a 50 μl reaction mixture. IDH enzyme activity converting alpha-ketoglutarate to 2-hydroxyglutaric acid is measured using a NADPH depletion assay. In the assay the remaining cofactor is measured at the end of the reaction with the addition of a catalytic excess of diaphorase and resazurin, to generate a fluorescent signal in proportion to the amount of NADPH remaining. […] The reaction is started with the addition of 10 μl of Substrate Mix ([…], 5 mM alpha-ketoglutarate, in Assay Buffer) and the mixture is incubated for 90 minutes at room temperature.
Sequence of IDH1 R132C (O75874 whole entry R132C): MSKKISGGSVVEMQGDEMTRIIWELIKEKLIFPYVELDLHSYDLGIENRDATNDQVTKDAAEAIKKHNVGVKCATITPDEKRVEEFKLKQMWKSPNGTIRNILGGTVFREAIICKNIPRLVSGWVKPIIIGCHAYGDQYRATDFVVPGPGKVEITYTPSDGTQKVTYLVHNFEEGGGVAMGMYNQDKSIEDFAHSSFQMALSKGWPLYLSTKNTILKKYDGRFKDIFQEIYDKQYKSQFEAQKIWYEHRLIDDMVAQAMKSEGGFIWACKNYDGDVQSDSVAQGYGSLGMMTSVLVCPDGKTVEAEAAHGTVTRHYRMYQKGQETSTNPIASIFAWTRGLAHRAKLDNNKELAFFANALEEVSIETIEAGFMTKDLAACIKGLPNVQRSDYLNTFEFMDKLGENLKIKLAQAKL
The concentration of NADPH and alpha-ketoglutarate in the Substrate Buffer is 20 μM and 1 mM, respectively.

The next assay addresses IDH1 R132H (Homo sapiens (Human), UniProt O75874, R132H). As to the kind of experiment: In vitro NADPH depletion assay for IDH1m R132H inhibitors. The format is biochemical. Conditions: IDH1 R132H enzyme, read-out: IDH R132H IC50. As to the method:
as §1

The mark [1] stands for this setting: inhibition of 2-HG production, U87MG cells, 48 hours.

Sequence of IDH1 R132H (O75874 whole entry R132H): as the sequence (O75874 whole entry R132C) above, with C132H counted along it

For the compound `O=C(NC1CC(F)(F)C1)[C@H](c1ccccc1Cl)N(C(=O)[C@@H]1CCC(=O)N1c1cc(C(F)(F)F)ccn1)c1cccc(F)c1` [Compound 40], the IC50 in the assay on HT1080 cells lay within 100 to 500 nM; in the assay with U87MG cells (Homo sapiens, U-87 MG, 48 h), 100 to 500 nM.
Consider “(S)—N—((S)-1-(2-Chlorophenyl)-2-(3,3-difluorocyclobutylamino)-2-oxoethyl)-1-(3-cyano-phenyl)-N-(1H-indazol-7-yl)-5-oxopyrrolidine-2-carboxamide [Compound 186]”, for which the IC50 on IDH1 R132C, on IDH1 R132H and in the assay with U87MG cells (setting [1]) was less than 100 nM each time.
In the case of `N#Cc1ccnc(N2C(=O)CC[C@H]2C(=O)N(c2cc(F)cc(F)c2)[C@H](C(=O)NC2CC(F)(F)C2)c2ccccc2F)c1` [Compound 208, (S)-1-(4-Cyanopyridin-2-yl)-N—((S)-2-(3,3-difluorocyclobutylamino)-1-(2-fluorphenyl)-2-oxoethyl)-N-(3,5-difluorophenyl)-5-oxopyrrolidine-2-carboxamide], the IC50 at IDH1 R132C was less than 100 nM; on IDH1 R132H, less than 100 nM; with U87MG cells (Homo sapiens, U-87 MG, 48 h) it was less than 100 nM.
Turning to `COc1cccnc1N1C(=O)CC[C@H]1C(=O)N(c1cccc(F)c1)[C@H](C(=O)NC1CC(F)(F)C1)c1ccccc1Cl` [Compound 17], the IC50 with HT1080 cells lay within 500 to 1000 nM; in the assay on U87MG cells (Homo sapiens, U-87 MG, 48 h) it was 1000 to 2000 nM.
For `N#Cc1ccnc(N2C(=O)OCC[C@H]2C(=O)N(c2cncc(F)c2)C(C(=O)NC2CC(F)(F)C2)c2ccccc2)c1` (stereo in doubt) [Compound 301, (S)-3-(4-cyanopyridin-2-yl)-N—((R)-2-((3,3-difluorocyclobutyl)amino)-2-oxo-1-phenylethyl)-N-(5-fluoropyridin-3-yl)-2-oxo-1,3-oxazinane-4-carboxamide], the IC50 on IDH1 R132H and with HT1080 cells was less than 100 nM each time.
Take “(S)—N—((S)-1-(2-Chlorophenyl)-2-((3,3-difluorocyclobutyl)amino)-2-oxoethyl)-1-(4-cyanopyrimidin-2-yl)-N-(3-fluoro-5-(methylsulfonyl)phenyl)-5-oxopyrrolidine-2-carboxamide [Compound 109]”: the IC50 at IDH1 R132C is less than 100 nM; at IDH1 R132H it was less than 100 nM; in the assay with U87MG cells (setting [1]), 100 to 500 nM.
For “(S)—N—((S)-1-(2-Chlorophenyl)-2-(3,3-difluorocyclobutylamino)-2-oxoethyl)-N-(3-cyano-5-fluorophenyl)-3-(3-cyanophenyl)-2-oxooxazolidine-4-carboxamide [Compound 134]”, the 50% inhibitory concentration (IC50) at IDH1 R132C, on IDH1 R132H and in the assay with U87MG cells (setting [1]) was less than 100 nM each time.
On to “(2S)—N-(1-(2-Chlorophenyl)-2-((4,4-difluorocyclohexyl)amino)-2-oxoethyl)-1-(4-cyanopyridin-2-yl)-N-(3-fluoro-5-(methylsulfonyl)phenyl)-5-oxopyrrolidine-2-carboxamide [Compound 105]”, for which the IC50 on IDH1 R132C, at IDH1 R132H and in the assay on U87MG cells (setting [1]) was less than 100 nM throughout.
As to `CC(C)(C)c1cccc(N(C(=O)[C@@H]2CCC(=O)N2c2nccc(C#N)n2)[C@H](C(=O)NC2CC(F)(F)C2)c2ccccc2Cl)c1` [Compound 165, (S)—N-(3-(tert-Butyl)phenyl)-N—((S)-1-(2-chlorophenyl)-2-((3,3-difluorocyclobutyl)amino)-2-oxoethyl)-1-(4-cyanopyrimidin-2-yl)-5-oxopyrrolidine-2-carboxamide], the IC50 is less than 100 nM at IDH1 R132H and less than 100 nM in the assay with U87MG cells (Homo sapiens, U-87 MG, 48 h).
For `N#Cc1cccc(N(C(=O)[C@@H]2CCC(=O)N2c2nccc(C#N)n2)[C@H](C(=O)NC2CCC(F)(F)CC2)c2ccccc2Cl)c1` [Compound 178, (S)—N—((S)-1-(2-Chlorophenyl)-2-((4,4-difluorocyclohexyl)amino)-2-oxoethyl)-N-(3-cyanophenyl)-1-(4-cyanopyrimidin-2-yl)-5-oxopyrrolidine-2-carboxamide], the IC50 was 100 to 500 nM in the assay with HT1080 cells and less than 100 nM with U87MG cells (Homo sapiens, U-87 MG, 48 h).
As for `O=C(NC1CC(F)(F)C1)[C@H](c1ccccc1Cl)N(C(=O)[C@@H]1CCC(=O)N1c1ccncn1)c1cccc(F)c1` [Compound 22], the IC50 on IDH1 R132C and at IDH1 R132H was 100 to 500 nM in each case.
As to `O=C(NC1CC(F)(F)C1)[C@H](c1ccccc1Cl)N(C(=O)[C@@H]1CCC(=O)N1c1ccc(Cl)cn1)c1cccc(F)c1` [Compound 48], the IC50 was in the range of 100 to 500 nM with HT1080 cells and 100 to 500 nM in the assay on U87MG cells (Homo sapiens, U-87 MG, 48 h).
On to `N#Cc1cccc(N2C(=O)OC[C@H]2C(=O)N(c2cccc3cn[nH]c23)[C@H](C(=O)NC2CCC(F)(F)CC2)c2ccccc2Cl)c1` [Compound 142, (S)—N—((S)-1-(2-Chlorophenyl)-2-(4,4-difluorocyclohexylamino)-2-oxoethyl)-3-(3-cyanophenyl)-N-(1H-indazol-7-yl)-2-oxooxazolidine-4-carboxamide], for which the IC50 at IDH1 R132C, at IDH1 R132H and in the assay on U87MG cells (setting [1]) was less than 100 nM each time.
Take `N#Cc1ccnc(N2C(=O)OCC[C@H]2C(=O)N(c2cncc(F)c2)C(C(=O)NC2CC(F)(F)C2)c2ccccc2F)c1` (stereo in doubt) [Compound 302, (S)-3-(4-cyanopyridin-2-yl)-N—((R)-2-(3,3-difluorocyclobutylamino)-1-(2-fluorophenyl)-2-oxoethyl)-N-(5-fluoropyridin-3-yl)-2-oxo-1,3-oxazinane-4-carboxamide]: the IC50 on IDH1 R132H and in the assay with HT1080 cells was less than 100 nM each time.
Take `O=C(NC1CC(F)(F)C1)[C@H](c1ccccc1Cl)N(C(=O)[C@@H]1CCC(=O)N1c1ccccn1)c1cccc(F)c1` [Compound 5]: the IC50 was less than 100 nM at IDH1 R132C; less than 100 nM on IDH1 R132H; 100 to 500 nM with U87MG cells (Homo sapiens, U-87 MG, 48 h).
With “(S)-tert-butyl 3-(((S)-1-(2-chlorophenyl)-2-((3,3-difluorocyclobutyl) amino)-2-oxoethyl)(3,5-difluorophenyl)carbamoyl)-5-oxopiperazine-1-carboxylate [Compound 97]”, the IC50 at IDH1 R132C, on IDH1 R132H and in the assay with U87MG cells (setting [1]) was less than 100 nM throughout.
With `O=C(NC1CC(F)(F)C1)[C@H](c1ccccc1Cl)N(C(=O)[C@@H]1CCC(=O)N1c1nccc2ccccc12)c1cccc(F)c1` [Compound 16], the IC50 in the assay with HT1080 cells fell in the range of 100 to 500 nM; in the assay with U87MG cells (Homo sapiens, U-87 MG, 48 h), 500 to 1000 nM.
On to “(S)—N—((S)-1-(2-Chlorophenyl)-2-((4,4-difluorocyclohexyl)amino)-2-oxoethyl)-3-(4-cyano-pyridin-2-yl)-N-(3-fluorophenyl)-2-oxooxazolidine-4-carboxamide [Compound 78]”, for which the IC50 at IDH1 R132C, on IDH1 R132H and in the assay with U87MG cells (setting [1]) was less than 100 nM throughout.
On to `N#Cc1ccnc(N2C(=O)CC[C@H]2C(=O)N(c2cccc(F)c2)[C@H](C(=O)NC2CC(F)(F)C2)c2c(Cl)cccc2Cl)c1` (single isomer, unassigned) [Compound 63], for which the IC50 in the assay with HT1080 cells is less than 100 nM; in the assay with U87MG cells (Homo sapiens, U-87 MG, 48 h), less than 100 nM.
The compound `Cc1cccc(N2C(=O)CC[C@H]2C(=O)N(c2cccc(F)c2)[C@H](C(=O)NC2CC(F)(F)C2)c2ccccc2Cl)n1` [Compound 28] came in with an IC50 in the assay on HT1080 cells of less than 100 nM.
For `O=C(NC1CC(F)(F)C1)[C@H](c1ccccc1Cl)N(C(=O)[C@@H]1COCC(=O)N1c1ncccn1)c1cccc(F)c1` [Compound 45], the IC50 with HT1080 cells was 100 to 500 nM; in the assay with U87MG cells (Homo sapiens, U-87 MG, 48 h), 100 to 500 nM.
Turning to `O=C(NC1CC(F)C1)[C@H](c1ccccc1Cl)N(C(=O)[C@@H]1CCC(=O)N1c1ncccn1)c1cccc(F)c1` (stereo partly drawn) [Compound 49], the IC50 is 100 to 500 nM with HT1080 cells and 100 to 500 nM in the assay on U87MG cells (Homo sapiens, U-87 MG, 48 h).
“(S)—N—((S)-1-(2-Chlorophenyl)-2-((3,3-difluorocyclobutyl)amino)-2-oxoethyl)-1-(4-cyanopyridin-2-yl)-N-(1H-indazol-6-yl)-5-oxopyrrolidine-2-carboxamide [Compound 205]”: the IC50 on IDH1 R132C, at IDH1 R132H and with U87MG cells (setting [1]) was less than 100 nM throughout.
Regarding “(2S)—N-(1-(2-Chlorophenyl)-2-((3,3-difluorocyclobutyl)amino)-2-oxoethyl)-1-(4-cyanopyridin-2-yl)-N-(3-fluoro-5-(methylsulfonyl)phenyl)-5-oxopyrrolidine-2-carboxamide [Compound 110]”, the IC50 at IDH1 R132C, on IDH1 R132H and with U87MG cells (setting [1]) was less than 100 nM throughout.
Regarding `Cc1cccnc1N1C(=O)CC[C@H]1C(=O)N(c1cccc(F)c1)[C@H](C(=O)NC1CC(F)(F)C1)c1ccccc1Cl` [Compound 15], the IC50 with HT1080 cells was 100 to 500 nM; with U87MG cells (Homo sapiens, U-87 MG, 48 h) it was 100 to 500 nM.
